Source: patent US20100203033A1, “Kits, formulations and solutions having enzymatically- permissive amounts of visualization agents and uses thereof” (priority 2007, published 2010)

Tests used:
thrombin [1] = target: T1, thrombin (Homo sapiens, UniProt P00734); assay: Thrombin clotting activity of dyed thrombin formulations (modified European Pharmacopeia Assay 0903/1997); assay type: biochemical; design: measuring thrombin clotting activity in the different formulations
Protocol: The present study was aimed to determine the effect of dye addition to the fibrin glue formulation on thrombin activity. […] The compatibility of the dyes with thrombin was tested by measuring thrombin clotting activity in the different formulations according to the following modified, European Pharmacopeia Assay (0903/1997), procedure.
(§1) Briefly, standard solution of thrombin (4, 6, 8 and 10 IU/ml) or the test sample were incubated for 2 minutes at 30° C. Then 40 μl thrombin solution of each solution were mixed with 160 μl fibrinogen solution (0.1%; Enzyme research; cat No FIB1 2800L) and clotting time was measured. A calibration curve of log clotting times vs. log thrombin concentration was plotted using the standards. Thrombin activity in the different formulations was determined by the clotting time obtained (calculated automatically by a clotting machine, interpolated from the calibration curve and multiplied by the dilution factor).

thrombin [2] = target: T1, thrombin; assay: Drop test model after freeze and thaw (F&T) of dyed thrombin; assay type: biochemical; design: 5 ml of a thrombin solution 5 folds diluted (final: 200 IU/ml)
Protocol: (§2) Human thrombin was mixed with different dyes to final dye concentrations of 0.005-0.2%. The influence of dyes on clotting kinetics was tested using the drop test model. Briefly, measurements of fibrin clotting kinetics were performed on an inclined plane in a device powered by a Nitrogen pressure of 7×10^5 Pa. In each experiment 5 ml of Biological Active Component (BAC) and 5 ml of a thrombin solution 5 folds diluted (final: 200 IU/ml) (in 40 mM CaCl2) were pumped into a separate syringe. […] These two solutions were released (about ⅛ of each) simultaneously, and a mixed drop falls onto a slanted surface. The drop leaks down the slope until a clot is formed. The distance traveled by the drops was recorded on a millimetric paper sheet placed on the slanted surface. […] The migration lengths of the fibrin sealant with the different formulations are listed below in Table 2.
Human thrombin was formulated with methylene blue, crystal violet, bromothymol blue or riboflavin at final concentrations of 0.005-0.1%. The different formulations were fast frozen to −35° C. and then thawed. The effect of the freeze and thaw procedure on thrombin clotting activity was evaluated using the drop test model (migration time assay as in Example 2).

thrombin [3] = target: T1, thrombin; assay: Drop test model: migration length of fibrin sealant on a slanted surface (clotting kinetics); assay type: biochemical; design: 5 ml of a thrombin solution 5 folds diluted (final: 200 IU/ml)
Protocol: as §2

[4] = Solubility of indigo carmine in thrombin solution by visual inspection; assay type: physicochemical
Protocol: The present example was aimed to determine the maximal solubility of indigo carmine in the thrombin component of the fibrin sealant. Thrombin final container (Omrix, 1,000 IU/ml, 5 ml) was mixed with 1% indigo carmine (dissolved in purified water) to a final concentration of 0.2, 0.21, 0.22, 0.25 or 0.3 mg/ml. The prepared solutions were mixed on a roller for 30 min at room temperature and the solubility limit of the dye was determined by visual inspection.

thrombin [5] = target: T1, thrombin; assay: Thrombin clotting activity of dyed thrombin with or without exposure to day light; assay type: biochemical; design: measuring thrombin clotting activity in the different formulations; conditions: 0.02% dye in thrombin solution, uncovered, 6 hours day light
Protocol: as §1
In the adhesion prevention indications the dye may be added to the thrombin component prior to mixing it with BAC. The present experiment was carried out to assess the effect of visualization agent addition to thrombin solution on thrombin clotting activity. Two dyes were evaluated: Indigo Carmine (IC) and Methylene Blue (MB). […] The effect of the dyes on thrombin activity with or without exposure to day light was assessed. The thrombin clotting activity was measured as indicated above in Example 1. […] The samples were mixed with the same fibrinogen solution and the thrombin activity was calculated from the calibration curve. […]
Thrombin activity and the color intensity (OD of IC at 610 nm and of MB at 663 nm) were measured at TO and after exposure to day light for 6 hours. […]

[6] = dye concentration within the thrombin component 0.01%
[7] = dye concentration within the thrombin component 0.05%
[8] = dye concentration within the thrombin component 0.1%
[9] = dye concentration within the thrombin component 0.2%
[10] = dye 0.005% in thrombin component
[11] = dye concentration within the thrombin component 0.005%
[12] = dye concentration within the thrombin component 0.02%

Q: Which results are given for `CN(C)c1ccc(C(=C2C=CC(=[N+](C)C)C=C2)c2ccc(N(C)C)cc2)cc1` [Crystal Violet]?
A: Recovered activity (thrombin [1]; [6]): 106%; Thrombin Activity (thrombin [1]; [6]): 1125 IU/ml; Recovered activity (thrombin [1]; [7]): 94%; Thrombin Activity (thrombin [1]; [7]): 995 IU/ml; Recovered activity (thrombin [1]; [8]): 49%; Thrombin Activity (thrombin [1]; [8]): 516 IU/ml; Recovered activity (thrombin [1]; [9]): 22%; Thrombin Activity (thrombin [1]; [9]): 234 IU/ml; Migration length (thrombin [2]; [10]): 16.3 cm; Migration length (thrombin [3]; [11]): 12.1 cm; Migration length (thrombin [3]; [6]): 23.9 cm; Migration length (thrombin [3]; [7]): >25 cm

Q: For `Cc1c(C2(c3cc(C(C)C)c(O)c(Br)c3C)OS(=O)(=O)c3ccccc32)cc(C(C)C)c(O)c1Br` [Bromothymol Blue], which Migration length (thrombin [2]; dye 0.02% in thrombin component) is on record?
A: >25 cm

Q: What about the Migration length (thrombin [3]; [6]) of the same compound?
A: 9.7 cm

Q: What about the Migration length (thrombin [3]; [12]) of the same compound?
A: 11.9 cm

Q: Which results are given for `O=C1/C(=C2\Nc3ccc(S(=O)(=O)O)cc3C2=O)Nc2ccc(S(=O)(=O)O)cc21` [indigo carmine, Indigotindisulfonate sodium]?
A: effect of storage at 2-8 °C ([4]; 0.02% indigo carmine dyed thrombin solution, about 30 min at 2-8 °C): sedimentation; effect of incubation at room temperature after refrigeration ([4]; 0.02% indigo carmine dyed thrombin solution, after over night incubation at 2-8 °C): re-dissolution of the particulate sample; result of visual inspection above the solubility limit ([4]; 0.21, 0.22, 0.25 and 0.3 mg/ml in thrombin solution): aggregate formation; concentration at which complete dissolution of the sample was obtained ([4]; thrombin final container 1,000 IU/ml, 30 min on roller at room temperature): 200 µg/mL

Q: Which results are given for `CN(C)c1ccc(N=Nc2ccc(S(=O)(=O)[O-])cc2)cc1.[Na+]` [Methyl Orange, Methyl Orange Sodium Salt]?
A: Migration length (thrombin [3]; [11]): 8.26 cm; Migration length (thrombin [3]; [6]): 7.6 cm

Q: Which Migration length (thrombin [3]; dye dilution 01:26) does the source give for `CN(C)c1ccc(/N=N/c2ccccc2C(=O)O)cc1` [Methyl Red, Methyl red] here?
A: 12.4 cm

Q: What about the Migration length (thrombin [3]; dye dilution 01:51) of the same compound?
A: 10.2 cm

Q: What does the source list for `Cc1cc2nc3c(=O)[nH]c(=O)nc-3n(C[C@H](O)[C@H](O)[C@H](O)CO)c2cc1C` [Riboflavin]?
A: Migration length (thrombin [2]; [10]): 19.8 cm; Migration length (thrombin [3]; [11]): 11.5 cm; Migration length (thrombin [3]; [6]): 13.3 cm; Migration length (thrombin [3]; [12]): 22.9 cm

Q: Which “reduction in thrombin activity” value (thrombin [5]) does the source give for `CN(C)c1ccc2nc3ccc(=[N+](C)C)cc-3sc2c1` [Methylene Blue] here?
A: about 50%

Q: And the Recovered activity (thrombin [1]; [6])?
A: 92%

Q: And the “Thrombin Activity” value (thrombin [1]; [6])?
A: 1018 IU/ml

Q: And the Recovered activity (thrombin [1]; [7])?
A: 97%

Q: What about the “Thrombin Activity” value (thrombin [1]; [7]) of the same compound?
A: 1070 IU/ml

Q: What about the Recovered activity (thrombin [1]; [8]) of the same compound?
A: 90%

Q: And the “Thrombin Activity” value (thrombin [1]; [8])?
A: 991 IU/ml

Q: What about the Recovered activity (thrombin [1]; [9]) of the same compound?
A: 89%

Q: And the “Thrombin Activity” value (thrombin [1]; [9])?
A: 978 IU/ml

Q: And the Migration length (thrombin [2]; dye 0.1% in thrombin component)?
A: 8.4 cm

Q: And the Migration length (thrombin [3]; [8])?
A: 10.7 cm

Q: What about the Migration length (thrombin [3]; [9]) of the same compound?
A: 14.3 cm
